Kd, IC50 and EC50 data for 25 compounds are collected here from patent US8618289B2 (Ambit Biosciences Corporation, priority 2008, dated 2013).

In assay [1] the target is RAF kinases (Homo sapiens, UniProt P15056, V600E). In words: biochemical.
The target of assay [2] is RAF kinases (Homo sapiens, UniProt P04049). Kind of assay: biochemical.
The subject of assay [3] is MEK1 phosphorylation in the A375 human melanoma cell line. In words: cells. As to conditions: A-375, read-out: pMEK IC50.
The test system of assay [4] is A375 cells. Kind of assay: cells. As to conditions: Homo sapiens, A-375, read-out: A375 Viability EC50.
Assay [5] deals with RAF kinases (Homo sapiens, UniProt P15056). In words: biochemical.

As a reminder, the Kd is the concentration at which binding is half-saturated. Lower therefore signals higher affinity. A word on the IC50: it is the concentration at which inhibition is half-maximal. The term EC50 denotes the concentration that produces a half-maximal response.

Structures can show the parent of a compound that is named as a salt.

RAF kinases (Homo sapiens, UniProt P04049), sequence (P04049 whole entry): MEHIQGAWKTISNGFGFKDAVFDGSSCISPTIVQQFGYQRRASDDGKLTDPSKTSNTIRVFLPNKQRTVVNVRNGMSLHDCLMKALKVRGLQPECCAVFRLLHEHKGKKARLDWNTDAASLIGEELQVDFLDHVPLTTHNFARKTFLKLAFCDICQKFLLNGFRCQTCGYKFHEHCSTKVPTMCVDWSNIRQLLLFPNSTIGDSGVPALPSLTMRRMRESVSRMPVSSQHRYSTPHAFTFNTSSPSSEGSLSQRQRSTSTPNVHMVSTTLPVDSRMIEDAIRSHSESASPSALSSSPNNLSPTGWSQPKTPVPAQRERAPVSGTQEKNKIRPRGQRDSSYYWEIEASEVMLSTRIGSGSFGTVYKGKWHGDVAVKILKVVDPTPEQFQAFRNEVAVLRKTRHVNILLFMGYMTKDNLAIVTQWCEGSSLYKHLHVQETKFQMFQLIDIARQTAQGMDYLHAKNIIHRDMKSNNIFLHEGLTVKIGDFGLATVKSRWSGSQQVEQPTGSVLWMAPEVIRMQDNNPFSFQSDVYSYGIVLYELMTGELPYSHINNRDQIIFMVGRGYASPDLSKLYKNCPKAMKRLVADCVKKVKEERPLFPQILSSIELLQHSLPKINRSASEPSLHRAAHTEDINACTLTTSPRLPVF
RAF kinases (Homo sapiens, UniProt P15056, V600E), sequence (P15056 whole entry V600E): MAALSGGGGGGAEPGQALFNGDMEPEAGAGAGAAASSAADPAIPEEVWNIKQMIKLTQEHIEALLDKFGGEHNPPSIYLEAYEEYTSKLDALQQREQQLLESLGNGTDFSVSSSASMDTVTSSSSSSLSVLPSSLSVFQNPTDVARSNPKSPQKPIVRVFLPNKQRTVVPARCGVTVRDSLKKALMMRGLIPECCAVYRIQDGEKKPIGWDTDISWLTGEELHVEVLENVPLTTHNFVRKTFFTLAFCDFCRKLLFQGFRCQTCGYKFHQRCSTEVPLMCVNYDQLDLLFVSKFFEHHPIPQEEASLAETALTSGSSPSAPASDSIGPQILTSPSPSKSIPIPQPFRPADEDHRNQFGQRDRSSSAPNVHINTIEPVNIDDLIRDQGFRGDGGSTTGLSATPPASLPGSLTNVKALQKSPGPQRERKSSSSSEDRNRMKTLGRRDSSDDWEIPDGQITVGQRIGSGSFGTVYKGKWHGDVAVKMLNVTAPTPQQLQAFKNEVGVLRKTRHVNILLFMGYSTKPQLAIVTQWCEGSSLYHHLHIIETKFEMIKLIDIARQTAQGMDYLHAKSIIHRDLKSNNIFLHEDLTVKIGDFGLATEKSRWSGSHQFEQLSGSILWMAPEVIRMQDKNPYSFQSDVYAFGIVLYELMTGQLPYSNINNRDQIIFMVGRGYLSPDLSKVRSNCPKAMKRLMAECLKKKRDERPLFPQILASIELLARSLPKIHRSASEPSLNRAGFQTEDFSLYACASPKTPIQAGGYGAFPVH
RAF kinases (Homo sapiens, UniProt P15056), sequence (P15056 whole entry): as the sequence (P15056 whole entry V600E) above, with E600V counted along it

As to `COCCOc1cc(NC(=O)Nc2cccc(Oc3ncnc4cc(OC)c(OC)cc34)c2)ccc1C(F)(F)F` [Ex 147, 1-(3-(6,7-dimethoxyquinazolin-4-yloxy)phenyl)-3-(3-(2-methoxyethoxy)-4-(trifluoromethyl)phenyl)urea], the Kd was in the range of 0.25 to 0.5 µM in assay [1] and 0.5 to 1 µM in assay [2]. Besides, the IC50 in assay [3] was greater than 1 µM. For the same compound, the EC50 in assay [4] is greater than 1 µM.
Take `COc1ccc2ncnc(Sc3cccc(NC(=O)Nc4cc(C(C)(C)C)on4)c3)c2c1` [Ex 49, 1-(5-tert-butylisoxazol-3-yl)-3-(3-(6-methoxyquinazolin-4-ylthio)phenyl)urea]: the Kd was 0.25 to 0.5 µM in assay [1] and 0.5 to 1 µM in assay [2]. For the same compound, the IC50 in assay [3] was 0.5 to 1 µM. Also, the EC50 in assay [4] is greater than 1 µM.
With `COc1cc2c(Sc3cccc(NC(=O)Nc4cc(C(C)(C)C)on4)c3)ncnc2cc1OCCN1CCC(CO)CC1` [Ex 86, 1-(5-tert-butylisoxazol-3-yl)-3-(3-(7-(2-(4-(hydroxymethyl)piperidin-1-yl)ethoxy)-6-methoxyquinazolin-4-ylthio)phenyl)urea], the Kd was 0.25 to 0.5 µM in assay [1] and 0.5 to 1 µM in assay [2]. Moreover, in assay [3], the IC50 was less than 0.25 µM. In addition, the EC50 in assay [4] was greater than 1 µM.
As to `COCCOc1cc(NC(=O)Nc2cccc(Sc3ncnc4cc(OC)c(OC)cc34)c2)cc(C(F)(F)F)c1` [Ex 200, 1-(3-(6,7-dimethoxyquinazolin-4-ylthio)phenyl)-3-(3-(2-methoxyethoxy)-5-(trifluoromethyl)phenyl)urea], the Kd in assay [1] and in assay [5] was 0.5 to 1 µM each time. Also, the IC50 in assay [3] is greater than 1 µM. In assay [4], the EC50 was greater than 1 µM.
As for `COc1cc2ncnc(Oc3cccc(NC(=O)Nc4nccc(C(F)(F)F)n4)c3)c2cc1OC` [Ex 143, 1-(3-(6,7-dimethoxyquinazolin-4-yloxy)phenyl)-3-(4-(trifluoromethyl)pyrimidin-2-yl)urea], the Kd in assay [1] and in assay [2] was 0.25 to 0.5 µM throughout. Also, the IC50 in assay [3] is greater than 1 µM. Further, the EC50 in assay [4] is greater than 1 µM.
Turning to `COc1cc2ncnc(Oc3cccc(NC(=O)Nc4cc(-c5ccccc5)on4)c3)c2cc1OC` [Ex 113, 1-(3-(6,7-dimethoxyquinazolin-4-yloxy)phenyl)-3-(5-phenylisoxazol-3-yl)urea], the Kd in assay [1] lay in the range of 0.25 to 0.5 µM; in assay [5], 0.5 to 1 µM. Besides, the IC50 in assay [3] was 0.5 to 1 µM. Moreover, the EC50 in assay [4] is greater than 1 µM.
As for `COc1cc(OC2CCOCC2)c2c(Oc3cccc(NC(=O)Nc4cc(C(C)(C)C)on4)c3)ncnc2c1` [Ex 94, 1-(5-tert-butylisoxazol-3-yl)-3-{3-[7-methoxy-5-(tetrahydro-2H-pyran-4-yloxy)quinazolin-4-yloxy]phenyl}urea], the Kd in assay [1] and in assay [2] was 0.25 to 0.5 µM each time. Besides, the IC50 in assay [3] was 0.25 to 0.5 µM. For the same compound, the EC50 in assay [4] is greater than 1 µM.
In the case of `COCCOc1ccc2ncnc(Sc3cccc(NC(=O)Nc4cc(C(C)(C)C)on4)c3)c2c1` [Ex 87, 1-(5-tert-butylisoxazol-3-yl)-3-(3-(6-(2-methoxyethoxy)quinazolin-4-ylthio)phenyl)urea], the equilibrium dissociation constant (Kd) in assay [1] fell in the range of 0.25 to 0.5 µM; in assay [2], 0.5 to 1 µM. In assay [3], the IC50 was in the range of 0.25 to 0.5 µM. Moreover, the half-maximal effective concentration (EC50) in assay [4] is greater than 1 µM.
For the compound `COc1cc2ncnc(Oc3cccc(NC(=O)Nc4cc(C5(C(F)(F)F)CCC5)no4)c3)c2cc1OC` [Ex 155, 1-(3-(6,7-dimethoxyquinazolin-4-yloxy)phenyl)-3-(3-(1-(trifluoromethyl)cyclobutyl)isoxazol-5-yl)urea], the equilibrium dissociation constant (Kd) in assay [1] was in the range of 0.25 to 0.5 µM. Further, the concentration for half-maximal inhibition (IC50) in assay [3] lay in the range of 0.25 to 0.5 µM. In addition, the EC50 in assay [4] is greater than 1 µM.
Consider `COc1cc2ncnc(Sc3cccc(NC(=O)Nc4cc(CN5CCOCC5)cc(C(F)(F)F)c4)c3)c2cc1OC` [Ex 189, 1-(3-(6,7-dimethoxyquinazolin-4-ylthio)phenyl)-3-(3-(morpholinomethyl)-5-(trifluoromethyl)phenyl)urea], for which the Kd in assay [1] lay within 0.25 to 0.5 µM; in assay [2] it was 0.5 to 1 µM. Moreover, in assay [3], the IC50 fell in the range of 0.5 to 1 µM. The EC50 in assay [4] is 0.5 to 1 µM.
`COc1cc2ncnc(Oc3cccc(NC(=O)Nc4cc(C(=O)N5CCOCC5)cc(C(F)(F)F)c4)c3)c2cc1OC` [Ex 149, 1-(3-(6,7-dimethoxyquinazolin-4-yloxy)phenyl)-3-(3-(morpholine-4-carbonyl)-5-(trifluoromethyl)phenyl)urea]: the dissociation constant (Kd) in assay [1] lay within 0.5 to 1 µM. In addition, in assay [3], the concentration for half-maximal inhibition (IC50) is greater than 1 µM. Moreover, the EC50 in assay [4] is greater than 1 µM.
Consider `COc1cc2ncnc(Sc3cccc(NC(=O)Nc4cc(C5(C(F)(F)F)CCC5)no4)c3)c2cc1OC` [Ex 156, 1-(3-(6,7-dimethoxyquinazolin-4-ylthio)phenyl)-3-(3-(1-(trifluoromethyl)cyclobutyl)isoxazol-5-yl)urea], for which the Kd in assay [1] lay in the range of 0.5 to 1 µM. Moreover, the IC50 in assay [3] lay in the range of 0.5 to 1 µM. Also, the EC50 in assay [4] was greater than 1 µM.
As to `COc1cc2ncnc(Oc3cccc(NC(=O)Nc4cc(C(F)(F)F)ccc4Cl)c3)c2cc1OC` [Ex 142, 1-(2-chloro-5-(trifluoromethyl)phenyl)-3-(3-(6,7-dimethoxyquinazolin-4-yloxy)phenyl)urea], the Kd in assay [1] and in assay [2] was 0.25 to 0.5 µM throughout. Further, the IC50 in assay [3] was greater than 1 µM. Besides, the EC50 in assay [4] is greater than 1 µM.
`COc1cc2ncnc(Sc3cccc(NC(=O)Nc4ccc(C(C)(C)C)cc4)c3)c2cc1OC` [Ex 174, 1-(4-tert-butylphenyl)-3-(3-(6,7-dimethoxyquinazolin-4-ylthio)phenyl)urea]: the Kd in assay [1] and in assay [2] was 0.25 to 0.5 µM in each case. The IC50 in assay [3] is greater than 1 µM. Besides, in assay [4], the EC50 is greater than 1 µM.
In the case of `COc1ccc2c(Sc3cccc(NC(=O)Nc4cc(C(C)(C)C)on4)c3)ncnc2c1` [Ex 48, 1-(5-tert-butylisoxazol-3-yl)-3-(3-(7-methoxyquinazolin-4-ylthio)phenyl)urea], in assay [1], the Kd fell in the range of 0.25 to 0.5 µM. Besides, the half-inhibitory concentration (IC50) in assay [3] is 0.5 to 1 µM. Besides, the EC50 in assay [4] is greater than 1 µM.
Taken in the same sequence, the figures for `COc1cc2ncnc(Oc3cc(NC(=O)Nc4cc(C(C)(C)C)on4)ccc3Cl)c2cc1OC` [Ex 10, 1-(5-tert-butylisoxazol-3-yl)-3-(4-chloro-3-(6,7-dimethoxyquinazolin-4-yloxy)phenyl)urea] were 0.5 to 1 µM, greater than 1 µM and greater than 1 µM.
Taken in the same sequence, the figures for `COc1cc2ncnc(Oc3cccc(NC(=O)Nc4cc(C(F)(F)F)nn4-c4ccccc4)c3)c2cc1OC` [Ex 161, 1-[3-(6,7-dimethoxyquinazolin-4-yloxy)phenyl]-3-[1-phenyl-3-(trifluoromethyl)-1H-pyrazol-5-yl]urea] were 0.5 to 1 µM, less than 0.25 µM and 0.25 to 0.5 µM.
On the same counts, the results for `COc1cc2ncnc(Oc3cccc(NC(=O)Nc4cc(C(C)(C)C)on4)c3)c2cc1O[C@H]1CCN(C(=O)OC(C)(C)C)C1` [Ex 108, (S)-tert-butyl 3-(4-(3-(3-(5-tert-butylisoxazole-3-yl)ureido)phenoxy)-7-methoxyquinazolin-6-yloxy)pyrrolidine-1-carboxylate] are 0.5 to 1 µM, less than 0.25 µM and 0.5 to 1 µM.
In assay [1], `CC(C)(C)c1cc(NC(=O)Nc2cccc(Sc3ncnc4cc5c(cc34)OCCO5)c2)no1` [Ex 54, 1-(5-tert-butylisoxazol-3-yl)-3-[3-(7,8-dihydro-[1,4]dioxino[2,3-g]quinazolin-4-ylthio)phenyl]urea hydrochloride] displayed a dissociation constant Kd of 0.5 to 1 µM. Besides, the IC50 in assay [3] is 0.5 to 1 µM. In assay [4], the EC50 is greater than 1 µM.
Compound `CCOC(C)(C)c1cc(NC(=O)Nc2cccc(Oc3ncnc4cc(OC)c(OC)cc34)c2)n(-c2ccccc2)n1` [Ex 168, 1-[3-(6,7-dimethoxyquinazolin-4-yloxy)phenyl]-3-[3-(2-ethoxypropan-2-yl)-1-phenyl-1H-pyrazol-5-yl]urea] gave a Kd in assay [1] of 0.5 to 1 µM. Further, the IC50 in assay [3] was less than 0.25 µM. For the same compound, the 50% effective concentration (EC50) in assay [4] is greater than 1 µM.
Taken in the same sequence, the figures for `COc1cc2ncnc(Oc3cccc(NC(=O)Nc4cc(C(F)(F)F)nn4-c4ccc(F)cc4)c3)c2cc1OC` [Ex 171, 1-[3-(6,7-dimethoxyquinazolin-4-yloxy)phenyl]-3-[1-(4-fluorophenyl)-3-(trifluoromethyl)-1H-pyrazol-5-yl]urea] were 0.5 to 1 µM, 0.25 to 0.5 µM and 0.25 to 0.5 µM.
Taken in the same sequence, the figures for `CC(C)(C)c1cc(NC(=O)Nc2cccc(Sc3ncnc4cc(F)c(F)cc34)c2)no1` [Ex 47, 1-(5-tert-butylisoxazol-3-yl)-3-(3-(6,7-difluoroquinazolin-4-ylthio)phenyl)urea] were 0.5 to 1 µM, greater than 1 µM and greater than 1 µM.
In the case of `COCCOc1cc(NC(=O)Nc2cccc(Sc3ncnc4cc(OC)c(OC)cc34)c2)ccc1C(F)(F)F` [Ex 148, 1-(3-(6,7-dimethoxyquinazolin-4-ylthio)phenyl)-3-(3-(2-methoxyethoxy)-4-(trifluoromethyl)phenyl)urea], in assay [1], the Kd lay in the range of 0.5 to 1 µM. In addition, in assay [3], the IC50 is greater than 1 µM. Besides, the EC50 in assay [4] was greater than 1 µM.
Consider `COc1cc2ncnc(Sc3cccc(NC(=O)Nc4ccc(Cl)c(C(F)(F)F)c4)c3)c2cc1OC` [Ex 186, 1-(4-chloro-3-(trifluoromethyl)phenyl)-3-(3-(6,7-dimethoxyquinazolin-4-ylthio)phenyl)urea], for which the Kd in assay [1] lay in the range of 0.25 to 0.5 µM. Moreover, the IC50 in assay [3] lay in the range of 0.25 to 0.5 µM. The EC50 in assay [4] lay in the range of 0.5 to 1 µM.
Turning to `COc1cc2ncnc(Sc3cccc(NC(=O)Nc4ccc(C(F)(F)F)c(OC)c4)c3)c2cc1OC` [Ex 190, 1-(3-(6,7-dimethoxyquinazolin-4-ylthio)phenyl)-3-(3-methoxy-4-(trifluoromethyl)phenyl)urea], the dissociation constant Kd in assay [1] was in the range of 0.5 to 1 µM. Besides, the 50% inhibitory concentration (IC50) in assay [3] was greater than 1 µM. Further, the EC50 in assay [4] was greater than 1 µM.
